Reference: ChEMBL document CHEMBL2203217, “Prohormone-substrate peptide sequence recognition by peptidylglycine α-amidating monooxygenase and its reflection in increased glycolate inhibitor potency” (Bioorg Med Chem Lett, 2012)

Tests used:
[1] = molecular target: T1, Peptidyl-glycine alpha-amidating monooxygenase (Homo sapiens, UniProt P19021); test: Competitive inhibition of secreted PAM in human DMS53 cell culture medium using as(R)-Tyr-(S)-Val-Gly as substrate after 2 hrs by HPLC analysis; set-up: species or system DMS-53
T1 sequence (P19021 whole entry): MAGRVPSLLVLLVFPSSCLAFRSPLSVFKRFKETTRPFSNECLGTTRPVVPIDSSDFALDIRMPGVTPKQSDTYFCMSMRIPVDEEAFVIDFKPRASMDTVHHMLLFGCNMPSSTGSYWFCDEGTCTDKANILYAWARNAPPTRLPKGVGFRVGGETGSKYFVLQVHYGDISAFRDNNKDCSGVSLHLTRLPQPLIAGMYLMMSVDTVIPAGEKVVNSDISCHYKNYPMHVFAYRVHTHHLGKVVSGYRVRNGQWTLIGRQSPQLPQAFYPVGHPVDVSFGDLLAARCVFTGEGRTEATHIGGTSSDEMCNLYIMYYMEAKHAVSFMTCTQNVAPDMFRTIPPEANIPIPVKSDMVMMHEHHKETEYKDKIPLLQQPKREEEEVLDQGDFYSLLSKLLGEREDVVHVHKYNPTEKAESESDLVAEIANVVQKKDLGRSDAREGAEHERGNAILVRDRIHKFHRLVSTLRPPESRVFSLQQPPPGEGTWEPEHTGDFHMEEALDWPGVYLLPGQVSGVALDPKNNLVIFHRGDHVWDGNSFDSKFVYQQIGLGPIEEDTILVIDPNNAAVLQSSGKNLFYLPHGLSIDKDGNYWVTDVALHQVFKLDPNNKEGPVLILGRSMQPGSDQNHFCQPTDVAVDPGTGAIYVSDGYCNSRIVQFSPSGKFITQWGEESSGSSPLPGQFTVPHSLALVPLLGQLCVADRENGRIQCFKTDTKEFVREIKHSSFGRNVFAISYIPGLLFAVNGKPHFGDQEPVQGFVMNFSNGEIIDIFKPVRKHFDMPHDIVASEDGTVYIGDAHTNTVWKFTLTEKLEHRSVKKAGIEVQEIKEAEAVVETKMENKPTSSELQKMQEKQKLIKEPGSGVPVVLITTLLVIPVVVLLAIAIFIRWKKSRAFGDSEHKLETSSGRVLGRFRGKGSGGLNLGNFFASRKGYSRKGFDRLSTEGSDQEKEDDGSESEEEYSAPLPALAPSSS

[2] = molecular target: T1, Peptidyl-glycine alpha-amidating monooxygenase; test: Competitive inhibition of PAM in human DMS53 cells using as(R)-Tyr-(S)-Val-Gly as substrate after 2 hrs by HPLC analysis; format: cell-based, DMS-53

Row | SMILES | IC50 [1] [µM] | IC50 [2] [µM]
1 | C[C@H](N)C(=O)N[C@@H](Cc1ccccc1)C(=O)OCC(=O)O | 370 | 350
2 | C[C@H](NC(=O)CN)C(=O)N1CCC[C@H]1C(=O)OCC(=O)O | 1100 | 980
3 | C[C@H](N)C(=O)N1CCC[C@H]1C(=O)OCC(=O)O | 290 | 370
4 | CC(=O)NCC(=O)OCC(=O)O | 1800 | 210
5 | N[C@@H](Cc1ccccc1)C(=O)OCC(=O)O | 1600 | 1100
